Experimental data as given in PMC8762706, “Design of Coibamide A Mimetics with Improved Cellular Bioactivity” (ACS Medicinal Chemistry Letters, 2021).
Where two headings read alike, the source gives them in different places. Where a SMILES comes first, the peptide text is derived from it. Bridges are numbered along the chain shown (N, C = ends). [ ]: non-standard residue; d: D form. The star is where a group is joined. Phe(4-NO2) = N[C@@H](Cc1ccc([N+](=O)[O-])cc1)C(=O)O; Phe(4-N3) = [N-]=[N+]=Nc1ccc(C[C@H](N)C(=O)O)cc1; Phe(4-CF3) = N[C@@H](Cc1ccc(C(F)(F)F)cc1)C(=O)O; Phe(4-tBu) = CC(C)(C)c1ccc(C[C@H](N)C(=O)O)cc1; Bip = N[C@@H](Cc1ccc(-c2ccccc2)cc1)C(=O)O; Phe(4-CN) = N#Cc1ccc(C[C@H](N)C(=O)O)cc1; Phe(4-Cl) = N[C@@H](Cc1ccc(Cl)cc1)C(=O)O; 1Nal = N[C@@H](Cc1cccc2ccccc12)C(=O)O; 2Nal = N[C@@H](Cc1ccc2ccccc2c1)C(=O)O; NMe2Val = CC(C)[C@@H](C(=O)*)N(C)C; NMeLys(Me) = CNCCCC[C@H](NC)C(=O)O; NMeF = CN[C@@H](Cc1ccccc1)C(=O)O; NMeI = CC[C@H](C)[C@H](NC)C(=O)O; NMeT = CN[C@H](C(=O)O)[C@@H](C)O; NMeL = CN[C@@H](CC(C)C)C(=O)O; NMeOrn = CN[C@@H](CCCN)C(=O)O; NMeK = CN[C@@H](CCCCN)C(=O)O; dHiv = CC(C)[C@@H](O)C(=O)O; NMeS = CN[C@@H](CO)C(=O)O; NMeA = CN[C@@H](C)C(=O)O; dNMeA = CN[C@H](C)C(=O)O

Tested on: A549 cells
Test: Growth inhibition assay (MTS) in A549 cells
Assay type: cell-based
Experimental: Growth Inhibition AssayS3
A549 cells were cultured in Dulbecco’s modified Eagle’s medium (DMEM; Sigma) supplemented with 10% (v/v) fetal bovine serum at 37 °C in a 5% CO2-incubator. Growth inhibition assays using A549 cells were performed in 96-well plates (BD Falcon). A549 cells were seeded at 1000 cells/well in 90 μL of culture media, respectively, and were cultured for 24 h. Chemical compounds in DMSO were diluted 50-fold with the culture medium in advance. 30 μL of the chemical diluents were added.
The final volume of DMSO in the medium was equal to 0.5% (v/v). The cells under chemical treatment were incubated for a further 72 h. The wells in the plates were washed twice with the cultured medium without phenol-red. After 1-hour incubation with 100 μL of the medium, the cell culture in each well was supplemented with 20 μL of the MTS reagent (Promega), followed by incubation for additional 40 min. Absorbance at 490 nm of each well was measured using a Wallac 1420 ARVO SX multilabel counter (Perkin Elmer). Three experiments were performed per condition and the averages of inhibition rates in each condition were evaluated to determine IC50 values using the GraphPad Prism software.

[1] = read-out: IC50 (concentration for 50% growth inhibition of A549 cells), MTS assay, 72 h treatment, 0.5% DMSO, absorbance 490 nm, n = 3

CC[C@H](C)[C@H]1C(=O)N[C@@H](C)C(=O)N(C)[C@@H](CC(C)C)C(=O)N[C@@H](Cc2ccc(C(C)(C)C)cc2)C(=O)N(C)CCCC[C@H](N(C)C(=O)[C@H](CC(C)C)N(C)C(=O)[C@H](C)N(C)C(=O)[C@H](OC(=O)[C@H](C(C)C)N(C)C)C(C)C)C(=O)N(C)[C@@H](C)C(=O)N1C [10g] (NMe2Val-[dHiv][NMeA][NMeL][NMeLys(Me)][NMeA][NMeI]A[NMeL][Phe(4-tBu)]; lactam 4-C)
IC50 [1]: 610 ± 210 nM

CC[C@H](C)[C@H]1C(=O)N[C@@H](C)C(=O)N(C)[C@@H](CC(C)C)C(=O)N[C@@H](Cc2ccc(-c3ccccc3)cc2)C(=O)N(C)[C@H](C)C(=O)O[C@H](C)[C@H](N(C)C(=O)[C@H](CC(C)C)N(C)C(=O)[C@H](COC)N(C)C(=O)[C@H](OC(=O)[C@H](C(C)C)N(C)C)C(C)C)C(=O)N(C)[C@@H](COC)C(=O)N1C [compound 11, [Bph^10]-CbA] (NMe2Val-[dHiv][NMeS](Me)[NMeL][NMeT][NMeS](Me)[NMeI]A[NMeL][Bip][dNMeA]; ester 4-C)
fold more potent cytotoxicity than 1 (coibamide A) (ratio of IC50 values to 1): 12 fold

CC[C@H](C)[C@H]1C(=O)N[C@@H](C)C(=O)N(C)[C@@H](CC(C)C)C(=O)N[C@@H](Cc2ccc(OC)cc2)C(=O)N(C)CCC[C@H](N(C)C(=O)[C@H](CC(C)C)N(C)C(=O)[C@H](C)N(C)C(=O)[C@H](OC(=O)[C@H](C(C)C)N(C)C)C(C)C)C(=O)N(C)[C@@H](C)C(=O)N1C [2c]
IC50 [1]: 9600 ± 3200 nM

CC[C@H](C)[C@H]1C(=O)N[C@@H](C)C(=O)N(C)[C@@H](CC(C)C)C(=O)N[C@@H](Cc2ccc(OC)cc2)C(=O)NCCCC[C@H](N(C)C(=O)[C@H](CC(C)C)N(C)C(=O)[C@H](C)N(C)C(=O)[C@H](OC(=O)[C@H](C(C)C)N(C)C)C(C)C)C(=O)N(C)[C@@H](C)C(=O)N1C [2e] (NMe2Val-[dHiv][NMeA][NMeL][NMeK][NMeA][NMeI]A[NMeL]Y(Me); lactam 4-C)
IC50 [1]: 850 ± 20 nM

CC[C@H](C)[C@H]1C(=O)N[C@@H](C)C(=O)N(C)[C@@H](CC(C)C)C(=O)N[C@@H](Cc2ccc(N=[N+]=[N-])cc2)C(=O)N(C)CCCC[C@H](N(C)C(=O)[C@H](CC(C)C)N(C)C(=O)[C@H](C)N(C)C(=O)[C@H](OC(=O)[C@H](C(C)C)N(C)C)C(C)C)C(=O)N(C)[C@@H](C)C(=O)N1C [10e] (NMe2Val-[dHiv][NMeA][NMeL][NMeLys(Me)][NMeA][NMeI]A[NMeL][Phe(4-N3)]; lactam 4-C)
IC50 [1]: 380 ± 50 nM

CC[C@H](C)[C@H]1C(=O)N[C@@H](C)C(=O)N(C)[C@@H](CC(C)C)C(=O)N[C@@H](Cc2ccc(OC)cc2)C(=O)N(C)CCCC[C@H](N(C)C(=O)[C@H](CC(C)C)N(C)C(=O)[C@H](C)N(C)C(=O)[C@H](OC(=O)[C@H](C(C)C)N(C)C)C(C)C)C(=O)N(C)[C@@H](C)C(=O)N1C [2a, [MeAla^3, MeLys(Me)^5, MeAla^6]-CbA] (NMe2Val-[dHiv][NMeA][NMeL][NMeLys(Me)][NMeA][NMeI]A[NMeL]Y(Me); lactam 4-C)
times less active than the natural product 1 (ratio of IC50 values to 1): approximately 300 times

CC[C@H](C)[C@H]1C(=O)N[C@@H](C)C(=O)N(C)[C@@H](CC(C)C)C(=O)N[C@@H](Cc2ccc(C(F)(F)F)cc2)C(=O)N(C)CCCC[C@H](N(C)C(=O)[C@H](CC(C)C)N(C)C(=O)[C@H](C)N(C)C(=O)[C@H](OC(=O)[C@H](C(C)C)N(C)C)C(C)C)C(=O)N(C)[C@@H](C)C(=O)N1C [10c] (NMe2Val-[dHiv][NMeA][NMeL][NMeLys(Me)][NMeA][NMeI]A[NMeL][Phe(4-CF3)]; lactam 4-C)
IC50 [1]: 370 ± 70 nM

CC[C@H](C)[C@H]1C(=O)N[C@@H](C)C(=O)N(C)[C@@H](CC(C)C)C(=O)N[C@@H](Cc2ccc(OC)cc2)C(=O)NCCC[C@H](N(C)C(=O)[C@H](CC(C)C)N(C)C(=O)[C@H](C)N(C)C(=O)[C@H](OC(=O)[C@H](C(C)C)N(C)C)C(C)C)C(=O)N(C)[C@@H](C)C(=O)N1C [2g] (NMe2Val-[dHiv][NMeA][NMeL][NMeOrn][NMeA][NMeI]A[NMeL]Y(Me); lactam 4-C)
IC50 [1]: > 10000 nM

CC[C@H](C)[C@H]1C(=O)N[C@@H](C)C(=O)N(C)[C@@H](CC(C)C)C(=O)N[C@@H](Cc2cccc3ccccc23)C(=O)N(C)CCCC[C@H](N(C)C(=O)[C@H](CC(C)C)N(C)C(=O)[C@H](C)N(C)C(=O)[C@H](OC(=O)[C@H](C(C)C)N(C)C)C(C)C)C(=O)N(C)[C@@H](C)C(=O)N1C [10p] (NMe2Val-[dHiv][NMeA][NMeL][NMeLys(Me)][NMeA][NMeI]A[NMeL][1Nal]; lactam 4-C)
IC50 [1]: 4800 ± 500 nM

CC[C@H](C)[C@H]1C(=O)N[C@@H](C)C(=O)N(C)[C@@H](CC(C)C)C(=O)N[C@@H](Cc2ccc(C#N)cc2)C(=O)N(C)CCCC[C@H](N(C)C(=O)[C@H](CC(C)C)N(C)C(=O)[C@H](C)N(C)C(=O)[C@H](OC(=O)[C@H](C(C)C)N(C)C)C(C)C)C(=O)N(C)[C@@H](C)C(=O)N1C [10d] (NMe2Val-[dHiv][NMeA][NMeL][NMeLys(Me)][NMeA][NMeI]A[NMeL][Phe(4-CN)]; lactam 4-C)
IC50 [1]: 1500 ± 500 nM

CC[C@H](C)[C@H]1C(=O)N[C@@H](C)C(=O)N(C)[C@@H](CC(C)C)C(=O)N[C@@H](Cc2ccc(Cl)cc2)C(=O)N(C)CCCC[C@H](N(C)C(=O)[C@H](CC(C)C)N(C)C(=O)[C@H](C)N(C)C(=O)[C@H](OC(=O)[C@H](C(C)C)N(C)C)C(C)C)C(=O)N(C)[C@@H](C)C(=O)N1C [10f] (NMe2Val-[dHiv][NMeA][NMeL][NMeLys(Me)][NMeA][NMeI]A[NMeL][Phe(4-Cl)]; lactam 4-C)
IC50 [1]: 710 ± 190 nM

CC[C@H](C)[C@H]1C(=O)N[C@@H](C)C(=O)N(C)[C@@H](CC(C)C)C(=O)N[C@H](Cc2ccc(OC)cc2)C(=O)N(C)CCCC[C@H](N(C)C(=O)[C@H](CC(C)C)N(C)C(=O)[C@H](C)N(C)C(=O)[C@H](OC(=O)[C@H](C(C)C)N(C)C)C(C)C)C(=O)N(C)[C@@H](C)C(=O)N1C [9e] (NMe2Val-[dHiv][NMeA][NMeL][NMeLys(Me)][NMeA][NMeI]A[NMeL][dY](Me); lactam 4-C)
IC50 [1]: > 10000 nM

CC[C@H](C)[C@@H]1NC(=O)[C@H](C)N(C)C(=O)[C@@H](N(C)C(=O)[C@H](CC(C)C)N(C)C(=O)[C@H](C)N(C)C(=O)[C@H](OC(=O)[C@H](C(C)C)N(C)C)C(C)C)CCCCN(C)C(=O)[C@H](Cc2ccc(OC)cc2)NC(=O)[C@H](CC(C)C)N(C)C(=O)[C@H](C)NC1=O [8e] (NMe2Val-[dHiv][NMeA][NMeL][NMeLys(Me)][NMeA]IA[NMeL]Y(Me); lactam 4-C)
fold decrease in cytotoxicity compared with peptide 2a (ratio of IC50 values to 2a): nine-fold or more lower

CC[C@H](C)[C@H]1C(=O)N[C@@H](C)C(=O)N(C)[C@@H](CC(C)C)C(=O)N[C@@H](Cc2ccc([N+](=O)[O-])cc2)C(=O)N(C)CCCC[C@H](N(C)C(=O)[C@H](CC(C)C)N(C)C(=O)[C@H](C)N(C)C(=O)[C@H](OC(=O)[C@H](C(C)C)N(C)C)C(C)C)C(=O)N(C)[C@@H](C)C(=O)N1C [10b] (NMe2Val-[dHiv][NMeA][NMeL][NMeLys(Me)][NMeA][NMeI]A[NMeL][Phe(4-NO2)]; lactam 4-C)
IC50 [1]: 1100 ± 200 nM

CC[C@H](C)[C@H]1C(=O)N[C@H](C)C(=O)N(C)[C@@H](CC(C)C)C(=O)N[C@@H](Cc2ccc(OC)cc2)C(=O)N(C)CCCC[C@H](N(C)C(=O)[C@H](CC(C)C)N(C)C(=O)[C@H](C)N(C)C(=O)[C@H](OC(=O)[C@H](C(C)C)N(C)C)C(C)C)C(=O)N(C)[C@@H](C)C(=O)N1C [9c] (NMe2Val-[dHiv][NMeA][NMeL][NMeLys(Me)][NMeA][NMeI][dA][NMeL]Y(Me); lactam 4-C)
IC50 [1]: > 10000 nM

CC[C@H](C)[C@H]1C(=O)N[C@@H](C)C(=O)N(C)[C@@H](CC(C)C)C(=O)N(C)[C@@H](Cc2ccccc2)C(=O)N(C)CCCC[C@H](N(C)C(=O)[C@H](CC(C)C)N(C)C(=O)[C@H](C)N(C)C(=O)[C@H](OC(=O)[C@H](C(C)C)N(C)C)C(C)C)C(=O)N(C)[C@@H](C)C(=O)N1C [10n] (NMe2Val-[dHiv][NMeA][NMeL][NMeLys(Me)][NMeA][NMeI]A[NMeL][NMeF]; lactam 4-C)
cytotoxicity / bioactivity in words (MTS assay): loss of bioactivity | IC50 [1]: > 10000 nM

CC[C@H](C)[C@H]1C(=O)N[C@@H](C)C(=O)N(C)[C@@H](CC(C)C)C(=O)N[C@@H](Cc2ccc(OC)cc2)C(=O)N(C)[C@H](C)C(=O)O[C@H](C)[C@H](N(C)C(=O)[C@H](CC(C)C)N(C)C(=O)[C@H](COC)N(C)C(=O)[C@H](OC(=O)[C@H](C(C)C)N(C)C)C(C)C)C(=O)N(C)[C@@H](COC)C(=O)N1C [coibamide A] (NMe2Val-[dHiv][NMeS](Me)[NMeL][NMeT][NMeS](Me)[NMeI]A[NMeL]Y(Me)[dNMeA]; ester 4-C)
IC50 (read-out: IC50 (concentration for 50% growth inhibition of A549 cells), MTS assay, 72 h treatment, n = 3): 1.4 ± 0.4 nM

CC[C@H](C)[C@H]1C(=O)N[C@@H](C)C(=O)N(C)[C@@H](CC(C)C)C(=O)N[C@@H](Cc2ccc3ccccc3c2)C(=O)N(C)CCCC[C@H](N(C)C(=O)[C@H](CC(C)C)N(C)C(=O)[C@H](C)N(C)C(=O)[C@H](OC(=O)[C@H](C(C)C)N(C)C)C(C)C)C(=O)N(C)[C@@H](C)C(=O)N1C [10q] (NMe2Val-[dHiv][NMeA][NMeL][NMeLys(Me)][NMeA][NMeI]A[NMeL][2Nal]; lactam 4-C)
IC50 [1]: 280 ± 30 nM
